Measurements taken from patent US11078153B2, “2-difluoro substituted 4-aminocyclopentanecarboxylic acids as inhibitors of gamma-aminobutyric acid aminotransferase and human ornithine aminotransferase” (Northwestern University, priority 2019, dated 2021).
“Also recorded” adds a separate entry of the source. Like-named read-outs stand apart in the source and are kept apart here.

Tests used:
GABA-AT [1] = test: Concentration dependent assay of GABA-AT; format: biochemical
GABA-AT [2] = test: Time-dependent assay with GABA-AT; format: biochemical
OAT [3] = target: T1, OAT (Homo sapiens, UniProt P04181); test: OAT inhibition / inactivation assay (concentration-dependent assay with OAT); format: biochemical
T1 sequence (P04181 36-439 limits assumed): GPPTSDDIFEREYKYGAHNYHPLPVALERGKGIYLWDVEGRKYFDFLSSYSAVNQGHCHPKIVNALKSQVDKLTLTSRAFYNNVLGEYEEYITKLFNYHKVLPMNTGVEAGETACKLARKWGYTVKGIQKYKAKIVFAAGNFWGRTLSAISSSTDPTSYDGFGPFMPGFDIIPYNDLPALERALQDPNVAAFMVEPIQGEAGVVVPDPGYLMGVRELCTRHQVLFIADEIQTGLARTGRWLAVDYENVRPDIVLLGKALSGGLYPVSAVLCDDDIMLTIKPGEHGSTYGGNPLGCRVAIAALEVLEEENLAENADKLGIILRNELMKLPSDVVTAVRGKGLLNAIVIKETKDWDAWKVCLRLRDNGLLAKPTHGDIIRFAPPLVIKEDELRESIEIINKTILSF

[4] = cocaine addiction in humans, 9-week double-blind trial; cited from earlier work
[5] = long-term administration; cited from earlier work
OAT [6] = target: T1, OAT; test: Time-dependent assay with OAT (kinact/KI); format: biochemical
Source text: In summary, enantiomerically pure 1 was synthesized from an enantiomerically pure Vince lactam in six steps.

OAT [7] = target: T1, OAT; test: OAT fluoride release assay; format: biochemical; settings: without α-ketoglutarate, FIG. 3
Method: An OAT fluoride release assay was performed with NAL-1-47 and it was calculated that there were 13.02 fluoride ions released per enzyme active site (FIG. 3).

OAT [8] = target: T1, OAT; test: Dialysis assay of NAL-1-47 with OAT; format: biochemical; settings: for Percent Activity Remaining of OAT with NAL-1-47: pre-incubated overnight at 37° C.
Method: NAL-1-47 was incubated with OAT then dialyzed to determine whether it functions as a reversible inhibitor or an irreversible inactivator of OAT. NAL-1-47 was pre-incubated overnight at 37° C. with OAT. The remaining activity of the OAT was determined for 20, 50, 80, and 120 equiv of NAL-1-47 per OAT active site. The inactivated OAT was then dialyzed for 144 h and using a control, it was confirmed that the control OAT retained the majority of its activity after this dialysis.

OAT [9] = target: T1, OAT; test: Partition ratio assay of OAT; format: biochemical; settings: with α-KG, FIG. 5
Method: A partition ratio assay of OAT with NAL-1-47 was performed to determine the ratio of the compound acting as a substrate to the compound inactivating the enzyme.

[10] = listed as S, S enantiomer, hydrochloride

In the case of `N[C@@H]1C[C@H](C(=O)O)C(F)(F)C1` [NAL-1-73], the “inhibition of GABA-AT (in words)” value (GABA-AT [1]) is reported as “neither compound potently inhibited GABA-AT”, the “Activity Remaining (GABA-AT)” value (GABA-AT [1]; Conc. 0.0781 mM) is reported as 100.9% and the “Activity Remaining (GABA-AT)” value (GABA-AT [1]; Conc. 0.1563 mM) is reported as 94.5%. The “Activity Remaining (GABA-AT)” value (GABA-AT [1]; Conc. 0.3125 mM) was 95.1%, the “Activity Remaining (GABA-AT)” value (GABA-AT [1]; Conc. 0.625 mM) was 103.5% and the “Activity Remaining (GABA-AT)” value (GABA-AT [1]; Conc. 1.25 mM) was 88.8%. For the same compound, the “Activity Remaining (GABA-AT)” value (GABA-AT [1]; Conc. 2.5 mM) was 85.2%, the “Activity Remaining (GABA-AT)” value (GABA-AT [1]; Conc. 5 mM) was 70.3% and the “Activity Remaining (GABA-AT)” value (GABA-AT [1]; Conc. 10 mM) was 55.3%. The “inhibition of GABA-AT (in words)” value (GABA-AT [1]; listed as R, R enantiomer) was “did not inhibit either OAT or GABA-AT potently”, the “inhibitory activity against GABA-AT in time-dependent assays (in words)” value (GABA-AT [2]) was “no significant inhibitory activity” and the “inhibition / inactivation of OAT (in words)” value (from here on “inhibition / inactivation”) (OAT [3]; listed as R, R enantiomer) was “did not inhibit either OAT or GABA-AT potently”.

In the case of `C=CC(N)CCC(=O)O` (centres unmarked) [Vigabatrin], the patients achieving abstinence [4] is given as “up to 28%” and the “permanent vision loss, share of epilepsy patients” value [5] is given as 25-40%.

With `Cl.N[C@H]1C[C@@H](C(=O)O)C(F)(F)C1` [NAL-1-47, (1S,4S)-4-amino-2,2-difluorocyclopentanecarboxylic acid hydrochloride] the kinact/KI (OAT [6]; OAT, Example 2, FIG. 4, read-out: kinact/KI (converted)) was 1.13 M⁻¹ s⁻¹, the kinact/KI (OAT [6]; time-dependent assay with OAT, Example 1) was 2.67 M⁻¹ s⁻¹ and the “fluoride ions released per enzyme active site” value (OAT [7]) was 13.02. For the same compound, the “Percent Activity Remaining of OAT with NAL-1-47” value (OAT [8]; 20 equiv per OAT active site) was 67.3%, the “Percent Activity Remaining of OAT with NAL-1-47 after 144 h Dialysis” value (OAT [8]; 20 equiv) was 63.3% and the “Percent Activity Remaining of OAT with NAL-1-47” value (OAT [8]; 50 equiv per OAT active site) was 52.5%. For the same compound, the “Percent Activity Remaining of OAT with NAL-1-47 after 144 h Dialysis” value (OAT [8]; 50 equiv) was 38.5%, the “Percent Activity Remaining of OAT with NAL-1-47” value (OAT [8]; 80 equiv per OAT active site) was 31.7% and the “Percent Activity Remaining of OAT with NAL-1-47 after 144 h Dialysis” value (OAT [8]; 80 equiv) was 27.6%. For the same compound, the “Percent Activity Remaining of OAT with NAL-1-47” value (OAT [8]; 120 equiv per OAT active site) was 21.1%, the “Percent Activity Remaining of OAT with NAL-1-47 after 144 h Dialysis” value (OAT [8]; 120 equiv) was 15.1% and the “Activity Remaining (GABA-AT)” value (GABA-AT [1]; Conc. 0.0781 mM) was 110.6%. For the same compound, the “Activity Remaining (GABA-AT)” value (GABA-AT [1]; Conc. 0.1563 mM) was 100.7%, the “Activity Remaining (GABA-AT)” value (GABA-AT [1]; Conc. 0.3125 mM) was 91.0% and the “Activity Remaining (GABA-AT)” value (GABA-AT [1]; Conc. 0.625 mM) was 93.6%. For the same compound, the “Activity Remaining (GABA-AT)” value (GABA-AT [1]; Conc. 1.25 mM) was 93.4%, the “Activity Remaining (GABA-AT)” value (GABA-AT [1]; Conc. 2.5 mM) was 88.3% and the “Activity Remaining (GABA-AT)” value (GABA-AT [1]; Conc. 5 mM) was 67.8%. For the same compound, the “Activity Remaining (GABA-AT)” value (GABA-AT [1]; Conc. 10 mM) was 44.7%, the “inhibition of GABA-AT (in words)” value (GABA-AT [1]; hydrochloride) was “does not inhibit GABA-AT potently; also recorded: neither compound potently inhibited GABA-AT” and the “inhibition of GABA-AT (in words)” value (GABA-AT [1]; listed as 1, hydrochloride) was “inhibitory activity against the enzymes GABA-AT and OAT”. For the same compound, the “inhibition of GABA-AT (in words)” value (GABA-AT [1]; [10]) was “only very weakly inhibit GABA-AT”, the “inhibitory activity against GABA-AT in time-dependent assays (in words)” value (GABA-AT [2]) was “no significant inhibitory activity” and the partition ratio (OAT [9]) was 54.5. For the same compound, the “inhibition / inactivation” value (OAT [3]; hydrochloride) was “shown to inactivate OAT; also recorded: found to inhibit OAT potently”, the “inhibition / inactivation” value (OAT [3]; listed as 1, hydrochloride) was “inhibitory activity against the enzymes GABA-AT and OAT; also recorded: inhibit OAT more potently than the racemic version of this compound; also recorded: determined as an inactivator; also recorded: selectively inactivate OAT and was more potent than the racemic compound” and the “inhibition / inactivation” value (OAT [3]; [10]) was “inactivate OAT”.
